The target of one test is T1, PDE4A1 (Mus musculus, UniProt O89084).
T1 construct: targets used in the assays are full-length proteins (as opposed to simply the catalytic domain); expressed in transfected cells; host or cells: Schizosaccharomyces pombe, PDE gene integrated in place of cgs2
T1 sequence (O89084 1-610 isoform O89084-2): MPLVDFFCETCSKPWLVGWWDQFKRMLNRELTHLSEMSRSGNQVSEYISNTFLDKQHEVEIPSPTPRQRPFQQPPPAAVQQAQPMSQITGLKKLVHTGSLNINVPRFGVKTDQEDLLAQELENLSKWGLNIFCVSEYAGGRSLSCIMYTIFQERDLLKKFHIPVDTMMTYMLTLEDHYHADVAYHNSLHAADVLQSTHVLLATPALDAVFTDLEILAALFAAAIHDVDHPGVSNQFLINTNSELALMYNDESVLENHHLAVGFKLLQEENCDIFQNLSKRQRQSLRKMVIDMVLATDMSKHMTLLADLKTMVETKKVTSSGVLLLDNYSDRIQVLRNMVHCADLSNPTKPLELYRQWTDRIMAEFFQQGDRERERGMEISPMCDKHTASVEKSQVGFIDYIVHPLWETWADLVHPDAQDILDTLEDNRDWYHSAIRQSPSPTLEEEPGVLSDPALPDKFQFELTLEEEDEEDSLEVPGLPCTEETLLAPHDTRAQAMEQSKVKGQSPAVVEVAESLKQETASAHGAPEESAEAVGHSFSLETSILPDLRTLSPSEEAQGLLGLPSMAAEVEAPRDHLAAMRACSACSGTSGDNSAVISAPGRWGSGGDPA
Briefly: 5FOA growth assay (high throughput screen, ED50) in fission yeast strain expressing PDE4A1. The conditions noted are these: high throughput 5FOA growth screen; greater than 8.53 = statistically-significant inhibitor. The format is cell-based. How it is done:
(§1) High throughput drug screens were carried out at the Broad Institute's Chemical Biology Program screening facility (Broad Institute, Cambridge, Mass.). Depending upon the strain, cultures were pregrown to exponential phase in EMM complete medium containing from 0.5 to 2.5 mM cAMP to repress fbp1-ura4 transcription. […] Starting cell concentrations ranged from 0.5×10^5 to 4×10^5 cells/ml depending on the screening strain. […] Other positive control dishes contained 5 mM cAMP in the 5FOA medium. Cultures were grown for 48 hours at 30° C., sealed in an airtight container with moist paper towels to prevent evaporation. Optical densities (OD600) of cultures were measured using a microplate reader. Bioinformatic analysis of the results to determine composite Z scores was performed as previously described^30, 31.
(§2) To determine whether the 5FOA growth phenotype could be exploited for high throughput drug screening, strains expressing PDE2A, PDE4A, PDE4B, or PDE8A were pre-grown in EMM medium containing cAMP and then transferred to 5FOA medium in 384 well microtiter plates in the presence or absence of cAMP. OD600 measurements were taken after 48 hours incubation at 30° C.
(§3) Cells were pregrown in EMM medium [MP Biomedicals (Solon, Ohio), 3% glucose, filter-sterilized to avoid carmelization, which would introduce variability into the optical density of the medium] containing from 0 mM to 2.5 mM cAMP (or either 0.5 mM or 1.0 mM cGMP). This was to repress expression of the fbp1-ura4 reporter prior to exposure of cells to 5FOA medium. Cells were grown at 30° C. to exponential phase (approximately 10^7 cells/ml). […] Starting cell concentrations ranged from 0.5×10^5 to 4×10^5 cells/ml depending on the screening strain. […] Other positive control dishes contained 5 mM cAMP in the 5FOA medium for PDEs that lack appropriate control compounds. Cultures were grown for 48 hours at 30° C., sealed in an airtight container with moist paper towels to prevent evaporation. Optical densities (OD600) of cultures were measured using a microplate reader. Bioinformatic analysis of the results to determine composite Z scores was performed as previously described (1, 3).

In a further test the target is T2, PDE4B3 (Mus musculus, UniProt Q8VBU5).
T2 construct: targets used in the assays are full-length proteins (as opposed to simply the catalytic domain); expressed in transfected cells; host or cells: Schizosaccharomyces pombe, PDE gene integrated in place of cgs2
T2 sequence (Q8VBU5 1-721): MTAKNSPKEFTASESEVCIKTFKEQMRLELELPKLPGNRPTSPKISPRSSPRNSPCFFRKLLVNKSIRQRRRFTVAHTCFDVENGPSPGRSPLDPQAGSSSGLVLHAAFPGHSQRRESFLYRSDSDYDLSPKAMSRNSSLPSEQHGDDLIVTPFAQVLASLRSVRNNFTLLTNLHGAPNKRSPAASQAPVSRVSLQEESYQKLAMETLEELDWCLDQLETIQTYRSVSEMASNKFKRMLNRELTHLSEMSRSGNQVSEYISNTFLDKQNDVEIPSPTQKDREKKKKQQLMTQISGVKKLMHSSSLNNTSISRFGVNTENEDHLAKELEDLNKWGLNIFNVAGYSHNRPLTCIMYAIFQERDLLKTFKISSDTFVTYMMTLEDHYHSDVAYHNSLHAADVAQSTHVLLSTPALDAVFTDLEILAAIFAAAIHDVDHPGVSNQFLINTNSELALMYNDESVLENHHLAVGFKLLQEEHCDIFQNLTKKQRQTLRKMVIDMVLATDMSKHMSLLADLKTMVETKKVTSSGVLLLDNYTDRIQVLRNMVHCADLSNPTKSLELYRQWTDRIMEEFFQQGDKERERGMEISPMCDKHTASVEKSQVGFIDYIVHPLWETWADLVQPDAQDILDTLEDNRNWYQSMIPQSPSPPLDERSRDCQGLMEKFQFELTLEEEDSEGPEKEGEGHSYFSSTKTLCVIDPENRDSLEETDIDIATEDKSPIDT
Put plainly: 5FOA growth assay in fission yeast strain expressing PDE4B3. The format is cell-based, Murine. The following applies: high throughput 5FOA growth screen. On the procedure: as §1, §2, §3

The next test has as its target PDE7A (Homo sapiens, UniProt Q13946). Briefly: 5FOA growth assay in fission yeast strain expressing PDE7A. Type of test: cell-based. On the set-up: targets used in the assays are full-length proteins (as opposed to simply the catalytic domain); expressed in transfected cells; host or cells: Schizosaccharomyces pombe, PDE gene integrated in place of cgs2. The conditions noted are these: high throughput 5FOA growth screen. How it is done:
PDE inhibition allows growth in 5FOA medium as measured by optical density after 48 hours incubation at 30° C. Compound BC12 and six structural analogs were tested for growth stimulation.
Cells were pregrown in EMM medium [MP Biomedicals (Solon, Ohio), 3% glucose, filter-sterilized to avoid carmelization, which would introduce variability into the optical density of the medium] containing from 0 mM to 2.5 mM cAMP (or either 0.5 mM or 1.0 mM cGMP). This was to repress expression of the fbp1-ura4 reporter prior to exposure of cells to 5FOA medium. Cells were grown at 30° C. to exponential phase (approximately 10^7 cells/ml). Cells were collected by centrifugation and resuspended in 5FOA medium, and 25 μl were transferred to 384-well microtiter dishes (untreated, with flat clear bottoms) that had been pre-filled with 25 μl 5FOA medium and pre-pinned with 100 nl of compounds (stock solutions were generally 10 mM). Starting cell concentrations ranged from 0.5×10^5 to 4×10^5 cells/ml depending on the screening strain. […] Other positive control dishes contained 5 mM cAMP in the 5FOA medium for PDEs that lack appropriate control compounds. Cultures were grown for 48 hours at 30° C., sealed in an airtight container with moist paper towels to prevent evaporation. Optical densities (OD600) of cultures were measured using a microplate reader. Bioinformatic analysis of the results to determine composite Z scores was performed as previously described (1, 3).

The structures appear in SMILES notation.

Sequence of PDE7A (Q13946 whole entry, the tested form may be a part): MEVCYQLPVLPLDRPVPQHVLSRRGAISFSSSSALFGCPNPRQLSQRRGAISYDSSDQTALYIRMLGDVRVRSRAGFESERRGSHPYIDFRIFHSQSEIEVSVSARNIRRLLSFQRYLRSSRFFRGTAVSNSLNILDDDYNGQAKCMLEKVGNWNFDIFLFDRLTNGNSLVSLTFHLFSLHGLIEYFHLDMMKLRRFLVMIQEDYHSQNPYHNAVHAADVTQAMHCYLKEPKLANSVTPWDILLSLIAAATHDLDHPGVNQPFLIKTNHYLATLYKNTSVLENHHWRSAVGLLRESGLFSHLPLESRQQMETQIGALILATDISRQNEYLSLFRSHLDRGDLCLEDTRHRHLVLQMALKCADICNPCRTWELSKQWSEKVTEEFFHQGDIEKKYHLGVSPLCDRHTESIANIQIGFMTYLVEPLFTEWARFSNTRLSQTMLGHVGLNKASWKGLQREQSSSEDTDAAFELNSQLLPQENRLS

Consider `Cc1sc2ncnc(N3CCN(c4cccc(C(F)(F)F)c4)CC3)c2c1C` [Compound 2074G03], for which, on PDE4A1, the “Composite Z score, PDE4A1” value amounted to 11.67. Further, the “Composite Z score, PDE4B3” value on PDE4B3 is on record as −1.188. In addition, at PDE7A, the “Composite Z score, PDE7A” value is given as −1.925.
The like results for `c1ccc(CNc2ncnc3sc4c(c23)CCCC4)cc1` [Compound 2077J03] were, in that order, 1.1575, 1.9013 and 1.1908.
The like results for `Cc1sc2ncnc(NCC(=O)O)c2c1C` [Compound 2085F18] were, in that order, 0.3168, 0.8136 and −1.774.
The like results for `O=C(c1ccco1)N1CCN(c2ncnc3sc4c(c23)CCCC4)CC1` [Compound 2083J20] were, in that order, 18.511, 5.6256 and 0.8496.
Consider `Cc1sc2ncnc(N(C)C)c2c1C` [Compound 2085O15], for which the “Composite Z score, PDE4A1” value on PDE4A1 came out at 1.0991. For the same compound, the “Composite Z score, PDE4B3” value at PDE4B3 was −1.519. In addition, on PDE7A, the “Composite Z score, PDE7A” value was −0.627.
As to `COc1ccc(CCNc2ncnc3sc(C)c(C)c23)cc1OC` [Compound 1423F01], the “Composite Z score, PDE4A1” value on PDE4A1 was 0.9043. Further, the “Composite Z score, PDE4B3” value on PDE4B3 worked out at 4.2065.
The like results for `O=C(Nc1ncnc2sc3c(c12)CCCC3)C(F)(F)F` [Compound 1406P09] were, in that order, 0.1456 and 0.5128.
Consider `O=C(Nc1ncnc2sc3c(c12)CCCCC3)c1ccco1` [Compound 2084G06], for which the “Composite Z score, PDE4A1” value on PDE4A1 is listed as 6.4203. The “Composite Z score, PDE4B3” value at PDE4B3 is 0.884. Further, on PDE7A, the “Composite Z score, PDE7A” value is −1.808.
Take `CCOC(=O)CSc1nc(NC)c2c3c(sc2n1)CCCC3` [Compound 1439B09]: the “Composite Z score, PDE4A1” value at PDE4A1 turned out to be 0.5702. Moreover, at PDE4B3, the “Composite Z score, PDE4B3” value was 1.2391.
Turning to `CC(C)CNc1ncnc2sc3c(c12)CCCC3` [Compound 2077P12], the “Composite Z score, PDE4A1” value on PDE4A1 is 1.6797. On PDE4B3, the “Composite Z score, PDE4B3” value came out at 9.3964. On PDE7A, the “Composite Z score, PDE7A” value is recorded as 17.695.
Turning to `C=CCNc1ncnc2sc3c(c12)CCCC3` [Compound 1435C20], the “Composite Z score, PDE4A1” value on PDE4A1 was 8.4736. Further, at PDE4B3, the “Composite Z score, PDE4B3” value was determined as 31.009.
The like results for `Cc1nc(N2CCOCC2)c2c(C)c(C(=O)Nc3cccc(Cl)c3C)sc2n1` [Compound 1424K08] were, in that order, 3.4896 and 21.717.
With `COc1ccc(C(=O)Nc2ncnc3sc4c(c23)CCCC4)cc1OC` [Compound 1414F18], the “Composite Z score, PDE4A1” value at PDE4A1 came to 9.1375. Also, on PDE4B3, the “Composite Z score, PDE4B3” value was −0.382.
On to `Cc1c(C(=O)N2CCC3(CC2)OCCO3)sc2ncnc(N(C)c3ccccc3)c12` [1393 E07], for which the “Composite Z score, PDE4A1” value at PDE4A1 is 3.1682. Besides, the “Composite Z score, PDE4B3” value on PDE4B3 is −1.206.
Consider `CC(C)C(Nc1ncnc2sc3c(c12)CCC3)C(=O)O` (stereo not shown) [Compound 1381A19], for which the “Composite Z score, PDE4A1” value on PDE4A1 was 1.3339. Besides, the “Composite Z score, PDE4B3” value on PDE4B3 worked out at 0.2365.
`c1cncc(CNc2ncnc3sc4c(c23)CCCC4)c1` [Compound 1423I22]: the “Composite Z score, PDE4A1” value at PDE4A1 was 1.7161. Also, the “Composite Z score, PDE4B3” value at PDE4B3 came to 0.501.
Consider `CCC(CO)Nc1nc(C)nc2sc3c(c12)CCC3` (stereo not shown) [Compound 1380M03], for which the “Composite Z score, PDE4A1” value on PDE4A1 was −1.217. The “Composite Z score, PDE4B3” value at PDE4B3 is listed as −2.398.
The like results for `Cc1sc2ncnc(NCc3ccc4c(c3)OCO4)c2c1C` [Compound 1426A15] were, in that order, 1.5745 and 0.9419.
The like results for `c1cn(CCCNc2ncnc3sc4c(c23)CCCC4)cn1` [1435 E20] were, in that order, 1.6661 and 0.5336.
Turning to `CCNc1nc(C)nc2sc3c(c12)CCCC3` [Compound 1410G03], the “Composite Z score, PDE4A1” value on PDE4A1 stood at 2.9506. Moreover, the “Composite Z score, PDE4B3” value on PDE4B3 is reported as 2.8289.
The like results for `COc1ccccc1C(=O)Nc1ncnc2sc3c(c12)CCCC3` [Compound 1415M01] were, in that order, 1.7784 and 1.1976.
Regarding `COC(=O)Cc1nc(N2CCC(C)CC2)c2c3c(sc2n1)CCCC3` [Compound 1392J18], the “Composite Z score, PDE4A1” value on PDE4A1 was 10.795. For the same compound, the “Composite Z score, PDE4B3” value on PDE4B3 worked out at 0.7173.
Consider `CC1CCc2c(sc3nc(SCC(N)=O)nc(NCc4ccccc4)c23)C1` (stereo not shown) [Compound 1439G17], for which, at PDE4A1, the “Composite Z score, PDE4A1” value was 6.7542. For the same compound, the “Composite Z score, PDE4B3” value at PDE4B3 worked out at 47.874.
Turning to `CCC(CO)Nc1nc(C)nc2sc3c(c12)CCC3` (stereo not shown) [Compound 1422J17], on PDE4A1, the “Composite Z score, PDE4A1” value came to 0.1866. Further, on PDE4B3, the “Composite Z score, PDE4B3” value is −0.936.
`Cc1sc2ncnc(NCCc3ccc4c(c3)OCCO4)c2c1C` [Compound 1426G17]: at PDE4A1, the “Composite Z score, PDE4A1” value is on record as 10.127. Moreover, on PDE4B3, the “Composite Z score, PDE4B3” value is on record as 25.393.
The like results for `CCN1CCN(c2nc(C)nc3sc4c(c23)CCC4)CC1` [Compound 1414C06] were, in that order, 1.6242 and 0.632.
Regarding `CC1CCc2c(sc3ncnc(NCCN4CCOCC4)c23)C1` (stereo not shown) [Compound 1425N16], the “Composite Z score, PDE4A1” value at PDE4A1 turned out to be 0.4867. Further, on PDE4B3, the “Composite Z score, PDE4B3” value is −1.074.

The values are drawn from patent US20100227853A1, “INHIBITORS OF CYCLIC AMP PHOSPHODIESTERASES” (Trustees of Boston College, priority 2008, published 2010).
